Reference: PMC7116157 (Nature chemical biology, 2019)

Biological target: T1, Cleavage and Polyadenylation Specificity Factor 3 (CPSF3) (Homo sapiens, UniProt Q9UKF6)
T1 sequence (Q9UKF6 1-459): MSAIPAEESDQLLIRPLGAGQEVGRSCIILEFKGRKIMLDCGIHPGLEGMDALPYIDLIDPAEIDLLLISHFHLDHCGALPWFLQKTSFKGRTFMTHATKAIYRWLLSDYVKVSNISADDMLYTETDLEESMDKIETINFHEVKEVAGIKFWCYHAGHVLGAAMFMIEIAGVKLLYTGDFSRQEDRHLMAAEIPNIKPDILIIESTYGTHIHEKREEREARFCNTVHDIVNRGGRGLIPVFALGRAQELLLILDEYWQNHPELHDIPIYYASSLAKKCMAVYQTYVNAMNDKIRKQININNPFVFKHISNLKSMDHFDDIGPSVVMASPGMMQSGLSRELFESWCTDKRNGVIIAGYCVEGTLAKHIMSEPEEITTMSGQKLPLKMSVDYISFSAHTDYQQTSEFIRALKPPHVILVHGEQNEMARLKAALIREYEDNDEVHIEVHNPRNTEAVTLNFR
Experiment: […] Å co-crystal structure
Type: binding

## CN1CCN(CCOc2c(Cl)cc(C(=O)N[C@@H](Cc3ccccc3)C(=O)O)c(O)c2Cl)CC1 [compound 2]
  Kd: 0.37 µM
